Columns and labels:
Format in all cases: binding
[1] = tested on: DpPorA; assay: Single-molecule sensing: analyte blocking of single DpPorA pore; settings: 1 M KCl; for ion current blockage of single DpPorA (in words): 10 mM HEPES pH 7.4, am8γCD 10 μM trans at positive voltages, γCD, s8γCD 100 μM cis, D9, R4 10 μM cis
Description: (§1) Electrical recordings were carried out by using bilayers of 1,2-diphytanoyl-sn-glycero-3-phosphocholine (DPhPC, Avanti Polar Lipids) formed across ~100 µm in diameter polytetrafluoroethylene (Teflon) film of 25 µm thick (Goodfellow, Cambridge)[59]. The Teflon film is sandwiched between two sides of the Delrin bilayer chamber, called cis and trans compartments (500 µL each). Solvent-free bilayers were formed by pre-treating the aperture with hexadecane in n-pentane (1 μL, 5 mg mL^−1) on each side of the bilayer chamber. Then the bilayer chamber was filled with the electrolyte solution (1 M KCl, 10 mM HEPES, pH 7.4) and DPhPC in n-pentane (2 μL, 5 mg mL^−1) was added to both sides of the chamber. After 5 min, a bilayer was formed when the electrolyte was raised, bringing the two lipid surface monolayers together at the aperture. pPorA pores were formed by adding self-assembled preoligomers extracted from the SDS PAGE gel to the cis side of the chamber. The cWza pores were formed by adding peptide solution in 0.1% DDM (1 µL, 100 µg mL^−1) to the cis side. The cis chamber was connected to the grounded electrode and the trans chamber was attached to the working electrode. A potential difference was applied through a pair of Ag/AgCl electrodes, set in 3% agarose containing 3.0 M KCl. We investigated the ion selectivity of pores using the KCl salt gradient applied across the bilayer chambers (1 M cis /0.15 M trans). The reverse potential was determined to calculate the permeability ratio of K^+ and Cl^- ions across the pore (Supplementary text). The current was amplified using an Axopatch 200B amplifier, digitized with a Digidata 1550B digitizer (pCLAMP 11.0, Molecular Devices, CA) with a low-pass filter frequency of 10 kHz and a sampling frequency of 50 kHz or a low-pass filter frequency of 2 kHz and a sampling frequency of 10 kHz. Single-channel data analysis was conducted using Clampfit 11.0 (Molecular devices, CA). Histogram plotting were performed in OriginPro 2022 (OriginLab).

[2] = tested on: DcWza; assay: Single-channel analyte blocking of DcWza pore; settings: 100 μM, trans; +100 mV; 1 M KCl, 10 mM HEPES, pH 7.4
Description: as §1, with “A potential difference was applied through a pair of Ag/AgCl electrodes, set in 3% agarose containing 3.0 M KCl. We investigated the ion selectivity of pores using the KCl salt gradient applied across the bilayer chambers (1 M cis /0.15 M trans).” left out, “The current was amplified using an Axopatch 200B amplifier, digitized with a Digidata 1550B digitizer (pCLAMP 11.0, Molecular Devices, CA) with a low-pass filter frequency of 10 kHz and a sampling frequency of 50 kHz or a low-pass filter frequency of 2 kHz and a sampling frequency of 10 kHz. Single-channel data analysis was conducted using Clampfit 11.0 (Molecular devices, CA). Histogram plotting were performed in OriginPro 2022 (OriginLab).” left out

[3] = tested on: LpPorA; assay: Single-channel analyte blocking of LpPorA pore; settings: +50 mV; am8γCD 1 µM trans; 1 M KCl; n = 3
Description: as §1, with “A potential difference was applied through a pair of Ag/AgCl electrodes, set in 3% agarose containing 3.0 M KCl. We investigated the ion selectivity of pores using the KCl salt gradient applied across the bilayer chambers (1 M cis /0.15 M trans).” left out, “The current was amplified using an Axopatch 200B amplifier, digitized with a Digidata 1550B digitizer (pCLAMP 11.0, Molecular Devices, CA) with a low-pass filter frequency of 10 kHz and a sampling frequency of 50 kHz or a low-pass filter frequency of 2 kHz and a sampling frequency of 10 kHz. Single-channel data analysis was conducted using Clampfit 11.0 (Molecular devices, CA). Histogram plotting were performed in OriginPro 2022 (OriginLab).” left out

SMILES	pore block (closure) of DpPorA (S) ([1]; 10 μM analyte, cis, negative voltages)	ion current blockage of single DpPorA (in words) [1]	ion current blockage of DcWza in the open state (in words) [2]	mean blockage time (τoff) [3]
NCC1OC2OC3C(CN)OC(OC4C(CN)OC(OC5C(CN)OC(OC6C(CN)OC(OC7C(CN)OC(OC8C(CN)OC(OC9C(CN)OC(OC1C(O)C2O)C(O)C9O)C(O)C8O)C(O)C7O)C(O)C6O)C(O)C5O)C(O)C4O)C(O)C3O (centres unmarked) [am8γCD]	100%	complete pore closure	no blockages were observed	0.22 ± 0.03 ms
OC[C@H]1O[C@@H]2O[C@H]3[C@H](O)[C@@H](O)[C@@H](O[C@H]4[C@H](O)[C@@H](O)[C@@H](O[C@H]5[C@H](O)[C@@H](O)[C@@H](O[C@H]6[C@H](O)[C@@H](O)[C@@H](O[C@H]7[C@H](O)[C@@H](O)[C@@H](O[C@H]8[C@H](O)[C@@H](O)[C@@H](O[C@H]9[C@H](O)[C@@H](O)[C@@H](O[C@H]1[C@H](O)[C@H]2O)O[C@@H]9CO)O[C@@H]8CO)O[C@@H]7CO)O[C@@H]6CO)O[C@@H]5CO)O[C@@H]4CO)O[C@@H]3CO [γCD]		did not produce any current blockages		
